1 substance from patent US10166279B2, “Vaccine” (Bergen Teknologioverføring AS, priority 2013, dated 2019) can be followed below.

One assay deals with anti-STh mAb ST:G8. Kind of assay: Competitive ELISA with anti-STh antibodies (polyclonal, mAb ST:G8). It counts as binding. Conditions: polyclonal and monoclonal (ST:G8) anti-STh antibodies. As to the method:
Competitive STh ELISA was performed as previously described (PMID: 6520401; Lockwood and Robertson, J Immunol Methods. 1984 Dec. 31; 75(2):295-307) with minor modifications. A U-shaped microtiter plate (Linbro, Fisher Scientific, Göteborg, Sweden) was coated with STh-ovalbumin conjugate diluted in ELISA buffer (NaCl 128 mM, KCl 2.68 mM, KH2PO4 1.47 mM, Na2HPO4 8.10 mM; pH 7.0-7.2). The plate was covered with plate sealer and incubated overnight at 37° C. Contents of the wells were discarded by inversion. Additional protein binding sites were blocked by incubating with ovalbumin 1% (w/v) (Sigma-Aldrich) diluted in ELISA buffer. After incubation for 1 h at 37° C., wells were emptied and washed three times with wash buffer (ELISA buffer containing ovalbumin 0.05% (w/v) and Tween-20 0.05% (v/v)). 75 μL of samples containing STh and 75 μL of diluted antisera (Protein-A purified rabbit anti-STa kindly supplied by John D. Clements; Department of Microbiology and Immunology, Tulane University, New Orleans, USA) were added. Both dilutions were done in ELISA buffer containing ovalbumin 0.05% (w/v). Appropriate dilutions and concentrations of reagents were determined by checkerboard titrations. The plate was incubated for 2 h at 37° C., in a rotary incubator shaker (Infors HT, Bottmingen/Basel Switzerland) at 180 rpm. Wells were emptied and washed three times with wash buffer. 100 μL of anti-Rabbit IgG Alkaline Phosphatase Conjugate developed in goat (Sigma-Aldrich) diluted 1:400 in ELISA buffer with ovalbumin 0.05% (w/v) were add and incubated with not shaking for 1 h at 37° C. Wells were emptied and washed three times with wash buffer followed by addition of 100 μL of 4-Nitrophenyl phosphate disodium salt hexahydrate at 1 mg/mL in diethanolamine buffer (diethanolamine 9.7% (v/v), MgCl2×6H2O 0.49 mM; pH 9.8). After incubation for 30 min, the reaction was stopped with 50 μL 2N NaOH (VWR international) in each well. The absorbance was read in an automatic plate reader at 405 nm (FLUOstar OPTIMA; BMG Labtech, Germany). All samples were measured in triplicate.
(§1) The anti-STh mAb ST:G8 was kindly supplied by S. Visweswariah [Garrett & Visweswariah; PMID: 8950201]. The anti-STp mAbs clone 29, clone 30, and clone 31 were obtained from Fitzgerald Industries International.
ELISA-plates (Nunc Amino Immobilizer) were coated with STh-OvA conjugate in PBS, volume 100 μl per well (synthetic STh conjugated to OvA: For ST:G8 0.04 μl/well, for clone 29 and clone 30 0.01 μl/well). Plates were incubated overnight at 4 C. Subsequently, plates were emptied and blocked with PBS-T 1% OvA for 1h at 20° C. with shaking 180 rpm. […] Developing was stopped by adding 50 μl NaOH 2M to each well, and OD was read at 405 nm with a Fluostar Optima plate reader.

A further assay deals with anti-STp mAb clone 30. The experiment in a line: Competitive ELISA with anti-STp antibodies (polyclonal, mAbs clone 29, 30, 31). It counts as binding. As to conditions: anti-STp mAb Clone 30, competitive ELISA. The procedure: as §1
ELISA-plates (Nunc Amino Immobilizer) were coated with STh-OvA conjugate in PBS, volume 100 μl per well (synthetic STh conjugated to OvA: For ST:G8 0.04 μl/well, for clone 29 and clone 30 0.01 μl/well). Plates were incubated overnight at 4 C. Subsequently, plates were emptied and blocked with PBS-T 1% OvA for 1h at 20° C. with shaking 180 rpm. After washing (3× with PBS-T) a volume of 60 μl of sample and 60 μl of primary antibody dilution was added to wells. Final dilutions of mAbs were as follows: ST:G8 1:6500, clone 29 1:16000, clone 30 1: 30000. Competitive incubation was performed for 90 minutes at 180 rpm, 20 C. Plates were then washed with 3×200 μl PBS-T and incubated at room-temperature for 1h with secondary antibody diluted in PBS-T 100 μl per well (anti-mouse dilution 1:400 for the ST:G8 ELISA, anti-mouse dilution 1:2000 for clone 29 and clone 30 ELISA). After renewed washing with 3×200 μl PBS-T, plates were developed with 100 μl developing buffer for 15-20 minutes. Developing was stopped by adding 50 μl NaOH 2M to each well, and OD was read at 405 nm with a Fluostar Optima plate reader.
For the clone 31 mAb a slightly different protocol was developed. […]

Consider “uroguanylin (NDDCELCVNVACTGCL) [endogenous peptide ligand of the GC-C receptor]”, for which the “binding by anti-STh antibodies” value with anti-STh mAb ST:G8 is reported as “bound”. In addition, the “binding by anti-STp antibodies” value with anti-STp mAb clone 30 was “does not cross-react”.
